According to patent US9340590B2 (priority 2011, dated 2016):
Positions of bridges follow the written chain, without caps; N, C: chain ends. Non-standard residues stand in square brackets, D forms with d. Residues, ends and D or L forms follow the SMILES beside them. NMeW = CN[C@@H](Cc1c[nH]c2ccccc12)C(=O)O; NMeF = CN[C@@H](Cc1ccccc1)C(=O)O

Tests used:
Test in all cases: cell-based
hNav1.5 = hNav1.5 (Homo sapiens, UniProt Q14524); conditions: Table 25; IonWorks Quattro, use; […]; read-out: IWQ Use Nav1.5
hNav1.3 = hNav1.3 (Homo sapiens, UniProt Q9NY46); conditions: Table 25; IonWorks Quattro, use; […]; read-out: IWQ Use Nav1.3
hNav1.7 = hNav1.7 (Homo sapiens, UniProt Q15858); assay type: cell-based; conditions: Table 25; IonWorks Quattro, use; […]; read-out: IWQ Use Nav1.7

hNav1.5, sequence (Q14524 whole entry, looked up): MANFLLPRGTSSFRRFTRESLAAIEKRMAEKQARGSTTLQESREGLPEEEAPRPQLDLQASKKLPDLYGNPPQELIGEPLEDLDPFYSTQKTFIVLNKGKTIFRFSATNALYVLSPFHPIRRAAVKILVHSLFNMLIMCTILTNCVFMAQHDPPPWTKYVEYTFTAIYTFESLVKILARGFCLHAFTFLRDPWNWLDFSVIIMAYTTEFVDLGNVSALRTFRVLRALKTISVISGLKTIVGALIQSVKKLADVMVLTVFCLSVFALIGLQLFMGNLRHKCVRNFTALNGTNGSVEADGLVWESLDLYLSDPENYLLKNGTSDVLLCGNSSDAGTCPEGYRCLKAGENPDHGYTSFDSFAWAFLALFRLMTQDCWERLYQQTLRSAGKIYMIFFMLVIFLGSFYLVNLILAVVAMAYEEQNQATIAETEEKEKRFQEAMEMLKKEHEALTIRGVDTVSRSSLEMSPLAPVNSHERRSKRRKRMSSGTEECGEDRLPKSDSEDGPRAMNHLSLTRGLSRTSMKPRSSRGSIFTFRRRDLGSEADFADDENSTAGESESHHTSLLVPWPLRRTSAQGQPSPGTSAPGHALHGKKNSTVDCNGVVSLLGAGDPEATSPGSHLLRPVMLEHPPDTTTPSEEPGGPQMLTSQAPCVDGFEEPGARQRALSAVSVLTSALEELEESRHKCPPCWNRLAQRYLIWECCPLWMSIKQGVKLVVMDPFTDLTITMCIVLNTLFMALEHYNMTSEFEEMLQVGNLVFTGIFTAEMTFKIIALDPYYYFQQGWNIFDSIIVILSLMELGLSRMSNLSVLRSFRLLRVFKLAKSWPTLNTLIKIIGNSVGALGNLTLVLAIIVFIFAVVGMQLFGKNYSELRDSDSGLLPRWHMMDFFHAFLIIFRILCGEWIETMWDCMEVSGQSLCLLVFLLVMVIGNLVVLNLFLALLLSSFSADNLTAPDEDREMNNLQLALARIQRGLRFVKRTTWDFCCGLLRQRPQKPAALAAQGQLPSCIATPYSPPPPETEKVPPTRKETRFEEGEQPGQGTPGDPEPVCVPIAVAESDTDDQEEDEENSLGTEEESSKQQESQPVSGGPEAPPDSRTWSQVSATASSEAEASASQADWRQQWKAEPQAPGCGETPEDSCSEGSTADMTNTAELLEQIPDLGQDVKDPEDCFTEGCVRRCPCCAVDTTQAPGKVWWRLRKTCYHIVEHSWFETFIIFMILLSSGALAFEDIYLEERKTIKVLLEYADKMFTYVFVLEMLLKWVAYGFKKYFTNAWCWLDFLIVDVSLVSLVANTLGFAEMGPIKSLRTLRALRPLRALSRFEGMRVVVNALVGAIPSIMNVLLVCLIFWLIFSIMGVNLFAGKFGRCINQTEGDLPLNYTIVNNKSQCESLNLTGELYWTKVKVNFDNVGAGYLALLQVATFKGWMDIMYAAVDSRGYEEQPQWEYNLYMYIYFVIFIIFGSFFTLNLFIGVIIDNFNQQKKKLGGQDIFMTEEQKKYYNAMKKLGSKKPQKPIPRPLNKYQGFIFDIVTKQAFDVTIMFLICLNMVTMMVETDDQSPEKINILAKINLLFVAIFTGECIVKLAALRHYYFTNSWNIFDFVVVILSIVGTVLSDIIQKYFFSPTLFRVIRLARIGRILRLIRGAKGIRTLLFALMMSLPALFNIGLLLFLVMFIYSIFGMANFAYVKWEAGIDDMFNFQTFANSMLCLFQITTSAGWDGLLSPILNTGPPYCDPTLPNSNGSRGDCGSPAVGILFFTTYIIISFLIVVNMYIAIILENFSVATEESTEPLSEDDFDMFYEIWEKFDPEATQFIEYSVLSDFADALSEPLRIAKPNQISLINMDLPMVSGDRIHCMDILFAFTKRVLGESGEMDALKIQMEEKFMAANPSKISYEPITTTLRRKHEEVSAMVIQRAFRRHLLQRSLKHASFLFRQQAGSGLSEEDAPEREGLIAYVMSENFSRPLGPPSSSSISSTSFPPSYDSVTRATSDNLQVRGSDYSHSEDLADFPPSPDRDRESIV
hNav1.3, sequence (Q9NY46 whole entry, looked up): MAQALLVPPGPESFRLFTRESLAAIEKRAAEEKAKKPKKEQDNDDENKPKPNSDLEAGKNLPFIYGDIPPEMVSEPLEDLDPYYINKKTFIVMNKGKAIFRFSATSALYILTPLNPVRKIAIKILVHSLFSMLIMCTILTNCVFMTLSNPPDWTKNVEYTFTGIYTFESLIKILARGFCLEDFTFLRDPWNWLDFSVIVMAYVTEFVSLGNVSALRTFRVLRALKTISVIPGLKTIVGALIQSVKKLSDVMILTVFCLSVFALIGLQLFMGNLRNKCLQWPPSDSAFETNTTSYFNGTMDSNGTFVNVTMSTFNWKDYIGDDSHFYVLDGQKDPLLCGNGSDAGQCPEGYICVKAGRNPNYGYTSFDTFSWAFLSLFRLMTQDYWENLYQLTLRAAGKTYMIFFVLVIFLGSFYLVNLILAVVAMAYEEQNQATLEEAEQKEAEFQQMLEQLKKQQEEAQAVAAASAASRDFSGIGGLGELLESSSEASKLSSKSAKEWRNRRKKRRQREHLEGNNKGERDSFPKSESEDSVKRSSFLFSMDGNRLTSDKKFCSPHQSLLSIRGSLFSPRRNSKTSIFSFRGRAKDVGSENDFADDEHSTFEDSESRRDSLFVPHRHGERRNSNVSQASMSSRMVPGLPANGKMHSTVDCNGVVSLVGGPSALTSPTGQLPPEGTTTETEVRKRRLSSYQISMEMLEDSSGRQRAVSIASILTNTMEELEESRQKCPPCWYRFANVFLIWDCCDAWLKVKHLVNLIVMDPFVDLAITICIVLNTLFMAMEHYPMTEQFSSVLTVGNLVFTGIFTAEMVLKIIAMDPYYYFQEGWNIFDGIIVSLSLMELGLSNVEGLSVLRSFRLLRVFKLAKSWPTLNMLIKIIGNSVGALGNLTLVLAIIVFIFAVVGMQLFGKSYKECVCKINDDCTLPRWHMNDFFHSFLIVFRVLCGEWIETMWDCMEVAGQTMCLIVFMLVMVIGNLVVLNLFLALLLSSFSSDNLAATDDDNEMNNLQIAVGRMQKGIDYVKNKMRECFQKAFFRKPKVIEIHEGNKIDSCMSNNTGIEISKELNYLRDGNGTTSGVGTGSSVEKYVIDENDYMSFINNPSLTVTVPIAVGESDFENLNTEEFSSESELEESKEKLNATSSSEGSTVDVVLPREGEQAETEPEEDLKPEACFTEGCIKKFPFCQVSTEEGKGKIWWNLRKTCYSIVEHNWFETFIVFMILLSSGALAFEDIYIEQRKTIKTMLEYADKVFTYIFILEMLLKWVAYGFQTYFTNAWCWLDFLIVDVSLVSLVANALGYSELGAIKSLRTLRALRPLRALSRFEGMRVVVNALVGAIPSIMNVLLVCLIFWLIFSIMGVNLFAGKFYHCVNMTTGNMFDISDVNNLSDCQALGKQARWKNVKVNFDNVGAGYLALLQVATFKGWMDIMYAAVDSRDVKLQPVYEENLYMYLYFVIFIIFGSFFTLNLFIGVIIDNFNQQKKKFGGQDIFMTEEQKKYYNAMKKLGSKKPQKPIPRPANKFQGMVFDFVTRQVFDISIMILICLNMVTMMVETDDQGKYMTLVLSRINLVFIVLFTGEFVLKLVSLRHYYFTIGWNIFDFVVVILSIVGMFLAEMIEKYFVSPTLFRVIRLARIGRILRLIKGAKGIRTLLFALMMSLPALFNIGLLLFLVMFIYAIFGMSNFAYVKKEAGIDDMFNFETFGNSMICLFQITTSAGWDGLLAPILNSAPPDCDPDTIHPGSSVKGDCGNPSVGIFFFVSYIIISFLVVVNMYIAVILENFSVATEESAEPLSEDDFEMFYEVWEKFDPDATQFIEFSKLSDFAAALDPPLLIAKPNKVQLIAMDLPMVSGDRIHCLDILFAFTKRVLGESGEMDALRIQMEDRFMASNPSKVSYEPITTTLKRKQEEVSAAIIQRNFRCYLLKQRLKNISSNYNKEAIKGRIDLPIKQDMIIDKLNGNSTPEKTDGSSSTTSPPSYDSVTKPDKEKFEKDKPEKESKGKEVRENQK

CC[C@H](C)[C@@H]1NC(=O)[C@@H]2CSSC[C@@H]3NC(=O)[C@H](C(C)C)NC(=O)[C@H](CC(C)C)NC(=O)[C@H](CC(N)=O)NC(=O)[C@@H]4CCCN4C(=O)[C@H](CCCNC(=N)N)NC(=O)[C@H](CSSC[C@H](NC(=O)[C@@H](N)CC(=O)O)C(=O)N[C@@H](CC(C)C)C(=O)NCC(=O)N[C@@H](Cc4ccccc4)C(=O)N[C@@H](CCSC)C(=O)N[C@@H](CCCNC(=N)N)C(=O)N[C@@H](CCCCN)C(=O)N2)NC(=O)[C@H](CSSC[C@@H](C(=O)N[C@@H](CCCCN)C(=O)N[C@@H](CCC(N)=O)C(=O)N[C@H](C(=O)N[C@@H](Cc2ccccc2)C(N)=O)C(C)C)NC(=O)[C@H](Cc2c[nH]c4ccccc24)NC(=O)[C@H](CCCCN)NC(=O)[C@H](Cc2c[nH]cn2)NC(=O)[C@H]([C@@H](C)O)NC(=O)[C@H](CCCNC(=N)N)NC(=O)[C@H](CO)NC3=O)NC(=O)[C@H](CCCCN)NC(=O)[C@H](CC(=O)O)NC(=O)[C@H](CC(N)=O)NC(=O)[C@H](CC(=O)O)NC(=O)[C@@H]2CCCN2C1=O [compound 366] (H-DCLGFMRKCIPDNDKCCRPNLVCSRTHKWCKQVF-NH2; disulfide 2-17, 9-23, 16-30)
IC50 (hNav1.5): 21 µM | IC50 (hNav1.3): 2.39 µM | IC50 (hNav1.7): 4.87 µM

CC[C@H](C)[C@H](NC(=O)[C@H](CCCCN)NC(=O)[C@@H]1CSSC[C@@H]2NC(=O)[C@H](CCCCN)NC(=O)[C@H](CC(=O)O)NC(=O)[C@H](CC(N)=O)NC(=O)[C@H](CC(=O)O)NC(=O)[C@@H]3CCCN3C(=O)[C@H]([C@@H](C)CC)NC(=O)[C@@H]3CSSC[C@H](NC(=O)[C@H](C(C)C)NC(=O)[C@H](CC(C)C)NC(=O)[C@H](CC(N)=O)NC(=O)[C@@H]4CCCN4C(=O)[C@H](CCCNC(=N)N)NC(=O)[C@H](CSSC[C@H](NC(=O)[C@@H](N)CC(=O)O)C(=O)N[C@@H](CC(C)C)C(=O)NCC(=O)N[C@@H](Cc4ccccc4)C(=O)N[C@@H](CCSC)C(=O)N[C@@H](CCCNC(=N)N)C(=O)N[C@@H](CCCCN)C(=O)N3)NC2=O)C(=O)N[C@@H](CO)C(=O)N[C@@H](CCCNC(=N)N)C(=O)N[C@@H]([C@@H](C)O)C(=O)N[C@@H](Cc2c[nH]cn2)C(=O)N[C@@H](CCCCN)C(=O)N[C@@H](Cc2c[nH]c3ccccc23)C(=O)N1)C(=O)N[C@H](C(=O)N[C@@H](Cc1ccccc1)C(N)=O)C(C)C [compound 367] (H-DCLGFMRKCIPDNDKCCRPNLVCSRTHKWCKIVF-NH2; disulfide 2-17, 9-23, 16-30)
IC50 (hNav1.5): 8.71 µM | IC50 (hNav1.3): 0.06 µM | IC50 (hNav1.7): 0.07 µM

CC[C@H](C)[C@@H]1NC(=O)[C@@H]2CSSC[C@@H]3NC(=O)[C@H](C(C)C)NC(=O)[C@H](CC(C)C)NC(=O)[C@H](CC(N)=O)NC(=O)[C@@H]4CCCN4C(=O)[C@H](CCCNC(=N)N)NC(=O)[C@H](CSSC[C@H](NC(=O)[C@@H](N)CC(=O)O)C(=O)N[C@@H](CC(C)C)C(=O)NCC(=O)N[C@@H](Cc4ccccc4)C(=O)N[C@@H](CCSC)C(=O)N[C@@H](CCCNC(=N)N)C(=O)N[C@@H](CCCCN)C(=O)N2)NC(=O)[C@H](CSSC[C@@H](C(=O)N[C@@H](CCCCN)C(=O)N[C@@H](CCSC)C(=O)N[C@H](C(=O)N[C@@H](Cc2ccccc2)C(N)=O)C(C)C)NC(=O)[C@H](Cc2c[nH]c4ccccc24)NC(=O)[C@H](CCCCN)NC(=O)[C@H](Cc2c[nH]cn2)NC(=O)[C@H]([C@@H](C)O)NC(=O)[C@H](CCCNC(=N)N)NC(=O)[C@H](CO)NC3=O)NC(=O)[C@H](CCCCN)NC(=O)[C@H](CC(=O)O)NC(=O)[C@H](CC(N)=O)NC(=O)[C@H](CC(=O)O)NC(=O)[C@@H]2CCCN2C1=O [compound 368] (H-DCLGFMRKCIPDNDKCCRPNLVCSRTHKWCKMVF-NH2; disulfide 2-17, 9-23, 16-30)
IC50 (hNav1.5): 6.21 µM | IC50 (hNav1.3): 0.14 µM | IC50 (hNav1.7): 0.35 µM

CC[C@H](C)[C@@H]1NC(=O)[C@@H]2CSSC[C@@H]3NC(=O)[C@H](C(C)C)NC(=O)[C@H](CC(C)C)NC(=O)[C@H](CC(N)=O)NC(=O)[C@@H]4CCCN4C(=O)[C@H](CCCNC(=N)N)NC(=O)[C@H](CSSC[C@H](NC(=O)[C@@H](N)CC(=O)O)C(=O)N[C@@H](CC(C)C)C(=O)NCC(=O)N[C@@H](Cc4ccccc4)C(=O)N[C@@H](CCSC)C(=O)N[C@@H](CCCNC(=N)N)C(=O)N[C@@H](CCCCN)C(=O)N2)NC(=O)[C@H](CSSC[C@@H](C(=O)N[C@@H](CCCCN)C(=O)N[C@H](C(=O)N[C@H](C(=O)N[C@@H](Cc2ccccc2)C(N)=O)C(C)C)[C@@H](C)O)NC(=O)[C@H](Cc2c[nH]c4ccccc24)NC(=O)[C@H](CCCCN)NC(=O)[C@H](Cc2c[nH]cn2)NC(=O)[C@H]([C@@H](C)O)NC(=O)[C@H](CCCNC(=N)N)NC(=O)[C@H](CO)NC3=O)NC(=O)[C@H](CCCCN)NC(=O)[C@H](CC(=O)O)NC(=O)[C@H](CC(N)=O)NC(=O)[C@H](CC(=O)O)NC(=O)[C@@H]2CCCN2C1=O [compound 369] (H-DCLGFMRKCIPDNDKCCRPNLVCSRTHKWCKTVF-NH2; disulfide 2-17, 9-23, 16-30)
IC50 (hNav1.5): 11.1 µM | IC50 (hNav1.3): 3.29 µM | IC50 (hNav1.7): 3.54 µM

CC[C@H](C)[C@@H]1NC(=O)[C@@H]2CSSC[C@@H]3NC(=O)[C@H](C(C)C)NC(=O)[C@H](CC(C)C)NC(=O)[C@H](CC(N)=O)NC(=O)[C@@H]4CCCN4C(=O)[C@H](CCCNC(=N)N)NC(=O)[C@H](CSSC[C@H](NC(=O)[C@@H](N)CC(=O)O)C(=O)N[C@@H](CC(C)C)C(=O)NCC(=O)N[C@@H](Cc4ccccc4)C(=O)N[C@@H](CCSC)C(=O)N[C@@H](CCCNC(=N)N)C(=O)N[C@@H](CCCCN)C(=O)N2)NC(=O)[C@H](CSSC[C@@H](C(=O)N[C@@H](CCCCN)C(=O)N(C)[C@@H](Cc2ccccc2)C(=O)N[C@H](C(=O)N[C@@H](Cc2ccccc2)C(N)=O)C(C)C)NC(=O)[C@H](Cc2c[nH]c4ccccc24)NC(=O)[C@H](CCCCN)NC(=O)[C@H](Cc2c[nH]cn2)NC(=O)[C@H]([C@@H](C)O)NC(=O)[C@H](CCCNC(=N)N)NC(=O)[C@H](CO)NC3=O)NC(=O)[C@H](CCCCN)NC(=O)[C@H](CC(=O)O)NC(=O)[C@H](CC(N)=O)NC(=O)[C@H](CC(=O)O)NC(=O)[C@@H]2CCCN2C1=O [compound 370] (H-DCLGFMRKCIPDNDKCCRPNLVCSRTHKWCK[NMeF]VF-NH2; disulfide 2-17, 9-23, 16-30)
IC50 (hNav1.5): > 5 µM | IC50 (hNav1.3): > 5 µM | IC50 (hNav1.7): > 5 µM

CC[C@H](C)[C@@H]1NC(=O)[C@@H]2CSSC[C@@H]3NC(=O)[C@H](C(C)C)NC(=O)[C@H](CC(C)C)NC(=O)[C@H](CC(N)=O)NC(=O)[C@@H]4CCCN4C(=O)[C@H](CCCNC(=N)N)NC(=O)[C@H](CSSC[C@H](NC(=O)[C@@H](N)CC(=O)O)C(=O)N[C@@H](CC(C)C)C(=O)NCC(=O)N[C@@H](Cc4ccccc4)C(=O)N[C@@H](CCSC)C(=O)N[C@@H](CCCNC(=N)N)C(=O)N[C@@H](CCCCN)C(=O)N2)NC(=O)[C@H](CSSC[C@@H](C(=O)N[C@@H](CCCCN)C(=O)N(C)[C@@H](Cc2c[nH]c4ccccc24)C(=O)N[C@H](C(=O)N[C@@H](Cc2ccccc2)C(N)=O)C(C)C)NC(=O)[C@H](Cc2c[nH]c4ccccc24)NC(=O)[C@H](CCCCN)NC(=O)[C@H](Cc2c[nH]cn2)NC(=O)[C@H]([C@@H](C)O)NC(=O)[C@H](CCCNC(=N)N)NC(=O)[C@H](CO)NC3=O)NC(=O)[C@H](CCCCN)NC(=O)[C@H](CC(=O)O)NC(=O)[C@H](CC(N)=O)NC(=O)[C@H](CC(=O)O)NC(=O)[C@@H]2CCCN2C1=O [compound 371] (H-DCLGFMRKCIPDNDKCCRPNLVCSRTHKWCK[NMeW]VF-NH2; disulfide 2-17, 9-23, 16-30)
IC50 (hNav1.5): > 5 µM | IC50 (hNav1.3): > 5 µM | IC50 (hNav1.7): 4.88 µM

CC[C@H](C)[C@@H]1NC(=O)[C@@H]2CSSC[C@@H]3NC(=O)[C@H](C(C)C)NC(=O)[C@H](CC(C)C)NC(=O)[C@H](CC(N)=O)NC(=O)[C@@H]4CCCN4C(=O)[C@H](CCCNC(=N)N)NC(=O)[C@H](CSSC[C@H](NC(=O)[C@@H](N)CC(=O)O)C(=O)N[C@@H](CC(C)C)C(=O)NCC(=O)N[C@@H](Cc4ccccc4)C(=O)N[C@@H](CCSC)C(=O)N[C@@H](CCCNC(=N)N)C(=O)N[C@@H](CCCCN)C(=O)N2)NC(=O)[C@H](CSSC[C@@H](C(=O)N[C@@H](CCCCN)C(=O)N[C@H](C(=O)N[C@H](C(=O)N[C@@H](Cc2ccccc2)C(N)=O)C(C)C)C(C)C)NC(=O)[C@H](Cc2c[nH]c4ccccc24)NC(=O)[C@H](CCCCN)NC(=O)[C@H](Cc2c[nH]cn2)NC(=O)[C@H]([C@@H](C)O)NC(=O)[C@H](CCCNC(=N)N)NC(=O)[C@H](CO)NC3=O)NC(=O)[C@H](CCCCN)NC(=O)[C@H](CC(=O)O)NC(=O)[C@H](CC(N)=O)NC(=O)[C@H](CC(=O)O)NC(=O)[C@@H]2CCCN2C1=O [compound 372] (H-DCLGFMRKCIPDNDKCCRPNLVCSRTHKWCKVVF-NH2; disulfide 2-17, 9-23, 16-30)
IC50 (hNav1.5): 14.8 µM | IC50 (hNav1.3): 0.08 µM | IC50 (hNav1.7): 0.15 µM

CC[C@H](C)[C@@H]1NC(=O)[C@@H]2CSSC[C@@H]3NC(=O)[C@H](C(C)C)NC(=O)[C@H](CC(C)C)NC(=O)[C@H](CC(N)=O)NC(=O)[C@@H]4CCCN4C(=O)[C@H](CCCNC(=N)N)NC(=O)[C@H](CSSC[C@H](NC(=O)[C@@H](N)CC(=O)O)C(=O)N[C@@H](CC(C)C)C(=O)NCC(=O)N[C@@H](Cc4ccccc4)C(=O)N[C@@H](CCSC)C(=O)N[C@@H](CCCNC(=N)N)C(=O)N[C@@H](CCCCN)C(=O)N2)NC(=O)[C@H](CSSC[C@@H](C(=O)N[C@@H](CCCCN)C(=O)N[C@@H](CC(C)C)C(=O)N[C@H](C(=O)N[C@@H](Cc2ccccc2)C(N)=O)C(C)C)NC(=O)[C@H](Cc2c[nH]c4ccccc24)NC(=O)[C@H](CCCCN)NC(=O)[C@H](Cc2c[nH]cn2)NC(=O)[C@H]([C@@H](C)O)NC(=O)[C@H](CCCNC(=N)N)NC(=O)[C@H](CO)NC3=O)NC(=O)[C@H](CCCCN)NC(=O)[C@H](CC(=O)O)NC(=O)[C@H](CC(N)=O)NC(=O)[C@H](CC(=O)O)NC(=O)[C@@H]2CCCN2C1=O [compound 373] (H-DCLGFMRKCIPDNDKCCRPNLVCSRTHKWCKLVF-NH2; disulfide 2-17, 9-23, 16-30)
IC50 (hNav1.5): 8.83 µM | IC50 (hNav1.3): 0.08 µM | IC50 (hNav1.7): 0.12 µM
